This is an account of results in patent US5430055A, “Inhibitor of squalene synthase” (Pfizer Inc., priority 1994, dated 1995).

Assay [1] concerns Cryptococcus bhutanensis, Sensitive Strain (against zaragozic Acid A). Put plainly: Antifungal bioassay, zone of inhibition, sensitive strain (against zaragozic acid A). The assay is classed as cell-based. The following applies: yeast nitrogen based medium, 28° C., 2 to 3 days. Here is the method:
(§1) The antifungal activity of the compound I was determined with a bioassay such as Cryptococcus bhutanensis FD 23971. A ten-day-old slant of C. bhutanensis was washed with 10 ml of sterile water, and 300 μl of the suspension was mixed with an assay medium consisting of 0.67% of yeast nitrogen based medium (DIFCO) and 0.5% of glucose. 150 ml of the warm medium was poured onto a sterile, polystyrene bioassay plate (245×245×20 mm) and was left to solidify. The solid medium was bored into well-separated wells with a size #2 cork bore, and 25 μl of whole broth or extracted broth was spotted into the wells. The plates were incubated at 28° C. for 2 to 3 days and the zone of inhibition was measured.
(§2) The zones of inhibition against Cryptococcus bhutanensis on a yeast nitrogen based medium are as follows: […]

Assay [2] deals with Cryptococcus bhutanensis, Resistant Strain. The assay is described as follows: Antifungal bioassay, zone of inhibition, resistant strain. In kind it is cell-based. The following applies: yeast nitrogen based medium, 28° C., 2 to 3 days. The protocol: as §1, §2
For assay [3], the target named is T1, squalene synthase (Homo sapiens, UniProt P37268).
T1 sequence (P37268 1-417): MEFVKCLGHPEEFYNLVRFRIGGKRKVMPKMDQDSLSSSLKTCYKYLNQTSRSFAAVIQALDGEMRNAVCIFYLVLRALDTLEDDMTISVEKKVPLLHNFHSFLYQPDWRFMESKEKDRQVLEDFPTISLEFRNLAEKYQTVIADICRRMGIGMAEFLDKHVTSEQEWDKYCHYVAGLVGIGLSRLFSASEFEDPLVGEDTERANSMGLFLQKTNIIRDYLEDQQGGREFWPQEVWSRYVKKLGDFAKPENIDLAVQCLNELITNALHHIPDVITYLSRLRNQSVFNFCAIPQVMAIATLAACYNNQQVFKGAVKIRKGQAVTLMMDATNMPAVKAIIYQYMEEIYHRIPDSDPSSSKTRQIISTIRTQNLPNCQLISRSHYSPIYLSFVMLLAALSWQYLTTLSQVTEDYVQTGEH
The assay is described as follows: Squalene Synthase Inhibition Assay. The assay is classed as biochemical. The following applies: microsomal protein, 30 minutes at 37° C., pH 7.4.
Method: The squalene synthase inhibition assay was conducted in a final volume of 75 μl. The reaction is initiated by addition of 25 μl of the diluted and deoxygenated microsomal suspension to a mixture of 47 μl of the deoxygenated SQS substrate/cofactor solution and 3 μl of the deoxygenated test compound solution as set out in Table 6.
Glucose-6-phosphate 0.95 U
The microsomal suspensions were diluted to a microsomal protein concentration of 1 mg/ml and deoxygenated by repetitive cycles of evacuation and airation with nitrogen. […] Control incubations received 3 μl of deoxygenated dimethyl sulfoxide and enzyme blanks received 25 μl of deoxygenated PMED buffer (50 mM K2 PO4 (pH=7.4), 5 mM MgCl2, 1 mM EDTA, 5 mM dithiothreitol). Assay tubes were immediately flushed with nitrogen and capped, and the solution was vortexed gently. Following 30 minutes of incubation at 37° C., reactions were terminated by addition of 40 μl of 10M sodium hydroxide. […] The region of the chromatogram from 1 cm below the squalene band (visualized with iodine vapors) to the top of the chromatogram was removed and counted in a liquid scintillation counter using Aquasol-2 liquid scintillation fluid. […]
SQS activity (overall reaction) is calculated as pmoles of [3H] squalene formed from [1-3H] […]

In assay [4] the target is T2, ras farnesyltransferase (Rattus norvegicus, UniProt Q02293+Q04631).
T2 construct: diluted rat brain cytosol; from tissue; host or cells: rat brain cytosol
The assay is described as follows: ras Farnesyltransferase inhibition assay. The assay is classed as biochemical. Conditions: rat brain cytosol, H-ras 4 μM, 30 minutes at 37° C., pH 7.5. Here is the method:
The ras farnesyltransferase inhibition assay was conducted in a final volume of 25 μL. The reaction is initiated by addition of 10 μpL of the diluted rat brain cytosol to a mixture of 15 μL of the ras farnesyltransferase substrate/cofactor solution and 0.3 μL of test compound solution as set out in Table 7.
The rat brain cytosols were diluted to a protein concentration of 3.0 mg/mL. Test compound solutions were prepared in dimethyl sulfoxide at concentrations of 25 mM (final assay concentration 300 μM). Control incubations received 0.3 μL of dimethyl sulfoxide and enzyme blanks received 10 μL rat brain homogenization buffer (50 mM tris HCl (pH=7.5), 5 mM dithiothreitol, 0.2M KCl, 20 μM ZnCl2). After a 30 minute incubation at 37° C., the reaction was terminated by addition of 200 μL of 10% (v/v) HCl in EtOH. After an additional 15 minute incubation at 37° C., 300 μl absolute EtOH were added and the entire sample was applied to a filtration well of a Packard Unifilter-GF/B 96-well plate under vacuum. After complete sample addition, the filter well was washed four times with 500 μl each of absolute ethanol and allowed to dry. The bottom of the Unifilter-GF/B plate was then sealed, 50 μl Microscint-20 liquid scintillation fluid were added to each well and the plate was heat-sealed and then counted in a Packard Top-Count liquid scintillation counter.
ras Farnesyltransferase Assay […]

The test system of assay [5] is ras protein farnesylation. Conditions: background statement; cited from earlier work.

Consider `C/C=C/CCCCC[C@@H]1C=C2[C@]3(CC(=O)O)CC4=C(C(=O)OC4=O)[C@@H]4[C@H]1C[C@H](C(=O)CC/C=C/C)O[C@]24OC3=O` [CP-263,114], for which the zone of inhibition (as a rule, the extent of the growth-free halo in a diffusion test) came to 42 mm in assay [1] and 45 mm in assay [2].
Regarding `C/C=C/CCCCC[C@@H]1C=C2[C@]3(CC(=O)O)CC4=C(C(=O)OC4=O)[C@H]([C@H]1C[C@@H](O)C(=O)CC/C=C/C)[C@@]2(O)OC3=O` [Fraction 5 compound], the results for the zone of inhibition in assay [1] and in assay [2] were 15 mm and 22 mm, respectively. Further, the half-inhibitory concentration (IC50) (usually the concentration at which inhibition is half-maximal) worked out at 48 µM in assay [3] and 6 µM in assay [4].
Molecule `C=C(CC[C@]12O[C@H](C(=O)O)[C@@](O)(C(=O)O)[C@](C(=O)O)(O1)[C@H](OC(=O)/C=C/[C@@H](C)C[C@@H](C)CC)[C@H]2O)[C@@H](OC(C)=O)[C@H](C)Cc1ccccc1` [Zaragozic acid A, reference compound] showed a concentration for half-maximal inhibition (IC50) in assay [4] of 3 µM. The “inhibition of farnesylation of ras protein” value in assay [5] is reported as “inhibit farnesylation of ras protein”.
